{"source": "patent US10709692B2", "about": "“Isoxazolidine derived inhibitors of receptor interacting protein kinase 1 (RIPK1)” (Denali Therapeutics Inc., priority 2015, dated 2020)", "note": "“And” between values parts separate entries of the source, which are not always exact repeats. Identical values can stand only once.", "data": [{"target": "T1, receptor interacting protein kinase 1 (GST-hRIPK1 (8-327)) (Homo sapiens, UniProt Q13546)", "T1 construct": "GST-hRIPK1 (8-327) enzyme was generated by Proteros GmbH by Baculovirus expression system", "T1 sequence (Q13546 8-327)": "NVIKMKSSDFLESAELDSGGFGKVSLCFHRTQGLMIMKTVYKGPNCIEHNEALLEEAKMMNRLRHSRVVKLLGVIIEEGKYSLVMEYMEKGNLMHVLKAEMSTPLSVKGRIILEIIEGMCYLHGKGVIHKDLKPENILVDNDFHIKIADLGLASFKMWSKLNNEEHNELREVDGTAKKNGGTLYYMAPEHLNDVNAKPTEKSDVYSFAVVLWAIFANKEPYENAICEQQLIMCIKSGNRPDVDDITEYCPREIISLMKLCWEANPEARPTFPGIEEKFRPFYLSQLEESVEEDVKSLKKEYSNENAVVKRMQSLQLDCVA", "assay": "Fluorescent Polarization Binding (FP Binding) assay", "conditions": "10 nM GST-hRIPK1 (8-327), 5 nM fluorescent-labeled ligand, 30 min at RT", "experimental": "Fluorescent Polarization Binding (FP Binding) assay (Berger S. B. et al. (2015) Cell Death Discovery, 1: 15009; Maki J. L. et al. (2012) Anal Biochem., 427(2): 164-174) was performed in polystyrene low volume 384-well black plate, at Room Temperature (RT) in a final volume of 10.1 μl/well using 10 nM of GST-hRIPK1 (8-327) enzyme and 5 nM of fluorescent-labeled ligand (14-(2-{[3-({2-{[4-(cyanomethyl)phenyl]amino}-6-[(5-cyclopropyl-1H-pyrazol-3-yl)amino]-4-pyrimidinyl}amino) propyl]amino}-2-oxoethyl)-16,16,18,18-tetramethyl-6,7,7a,8a,9,10,16,18-octahydrobenzo[2″3″]indolizino[8″, 0.7″:5′,6′]pyrano[3′,2′:3,4]pyrido[1,2-a]indol-5-ium-2-sulfonate.\nTest compounds were serially diluted in DMSO at 100 fold final concentrations in the assay (1% DMSO final). In each well of a 384-well Plate were dispensed 0.1 μL of compound solution (or DMSO for controls) followed by 5 μL of GST-hRIPK1 (8-327) at twice the final concentrations in assay-buffer (50 mM HEPES pH 7.5, 10 mM NaCl, 50 mM MgCl2, 0.02% CHAPS, 0.5 mM DTT and 0.01% Pluronic F127). For negative control the enzyme addition was replaced by assay buffer only.\nAfter addition of 5 μL of fluorescent-labeled ligand at twice the final concentrations in assay buffer, the plate was incubated at RT for 30 min. At the end, the binding was measured as FP value with the Envision (PerkinElmer) plate reader using filter for an excitation λ=531 nm FP and an emission λ=595 nm FP (S & P-pol).\nTest compound inhibition was expressed as percent inhibition of internal assay controls. For concentration response curves, normalized data is fit and IC50 determined using XL-fit (IDBS) for Excel. IC50 were averaged to determine a mean value, for a minimum of two independent experiments.\nReceptor interacting protein kinase 1 activity of exemplary compounds was determined according to the above general procedures.\nReceptor interacting protein kinase 1 activity of certain compounds was determined according to the above general procedures.", "values": [{"smiles": "CC(C)(C)OC(=O)N1CC(C)(C(=O)N2OCC[C@H]2c2ccc(F)cc2)C1", "note": "[Compound 44, tert-Butyl 3-[(3S)-3-(4-fluorophenyl)-1,2-oxazolidine-2-carbonyl]-3-methylazetidine-1-carboxylate]", "IC50": "1 to 10 µM"}, {"smiles": "O=C(N1OCC[C@H]1c1ccc(F)cc1)C12CC(C1)C2", "note": "[Compound 32, (3S)-2-{Bicyclo[1.1.1]pentane-1-carbonyl}-3-(4-fluorophenyl)-1,2-oxazolidine]", "IC50": "< 1 µM"}, {"smiles": "CC(C)(C)C(=O)N1OCC[C@H]1c1ccc(C(F)(F)F)cn1", "note": "[Compound 122, 2,2-dimethyl-(3S)-3-[5-(trifluoromethyl)pyridin-2-yl-1,2-oxazolidin-2-yl]propan-1-one]", "IC50": "< 1 µM"}, {"smiles": "CC1(C(=O)N2OCC[C@H]2c2ccc(F)cc2)CCOC1", "note": "(single isomer, unassigned) [Compound 41]", "IC50": "< 1 µM"}, {"smiles": "CC(C)(Cn1cccn1)C(=O)N1OCC[C@H]1c1ccc(F)cc1", "note": "[Compound 178, 1-[(3S)-3-(4-fluorophenyl)-1,2-oxazolidin-2-yl]-2,2-dimethyl-3-(1H-pyrazol-1-yl)propan-1-one]", "IC50": "< 1 µM"}, {"smiles": "CC1(C(=O)N2OCC[C@H]2c2ccc(F)cc2)CCCO1", "note": "(single isomer, unassigned) [Compound 136]", "IC50": "1 to 10 µM"}, {"smiles": "O=C(N1OCC[C@H]1c1ccccc1)C1(C(F)(F)F)CC1", "note": "[Compound 54, (3S)-3-Phenyl-2-[1-(trifluoromethyl)cyclo-propanecarbonyl]-1,2-oxazolidine]", "IC50": "< 1 µM"}, {"smiles": "CC1(C(=O)N2OCC[C@H]2c2ccc(F)cc2)CCCO1", "note": "(single isomer, unassigned) [Compound 137]", "IC50": "1 to 10 µM"}, {"smiles": "Cc1noc(C)c1C(C)C(=O)N1OCC[C@H]1c1ccc(F)cc1", "note": "(single isomer, unassigned) [Compound 186]", "IC50": "1 to 10 µM"}, {"smiles": "O=C(C1C2COCC21)N1OCC[C@H]1c1ccc(F)nc1", "note": "(stereo partly drawn) [Compound 160, 2-fluoro-5-[(3S)-2-{3-oxabicyclo[3.1.0]hexane-6-carbonyl}-1,2-oxazolidin-3-yl]pyridine]", "IC50": "1 to 10 µM"}, {"smiles": "CN1CC(C)(C(=O)N2OCC[C@H]2c2ccc(F)cc2)C1", "note": "[Compound 42, (3S)-2-(1,3-Dimethylazetidine-3-carbonyl)-3-(4-fluorophenyl)-1,2-oxazolidine]", "IC50": "> 10 µM"}, {"smiles": "CC(C)(C)C(=O)N1OCC[C@@H]1c1cccnc1F", "note": "[Compound 63, 1-[(3R)-3-(2-Fluoropyridin-3-yl)-1,2-oxazolidin-2-yl]-2,2-dimethylpropan-1-one]", "IC50": "1 to 10 µM"}, {"smiles": "CC(C)(C(=O)N1OCC[C@H]1c1ccc(C(F)F)c(C#N)c1)C(F)F", "note": "[Compound 227, 5-[(3S)-2-(3,3-difluoro-2,2-dimethylpropanoyl)-1,2-oxazolidin-3-yl]-2-(difluoromethyl)benzonitrile]", "IC50": "< 1 µM"}, {"smiles": "CC(CC#N)C(=O)N1OCC[C@H]1c1ccc(C#N)cc1", "note": "(single isomer, unassigned) [Compound 210]", "IC50": "1 to 10 µM"}, {"smiles": "CC(C)(C)C(=O)N1OCC[C@H]1c1nc(C(F)(F)F)cs1", "note": "[Compound 123, 2,2-dimethyl-1-[(3S)-3-[4-(trifluoromethyl)-1,3-thiazol-2-yl]-1,2-oxazolidin-2-yl]propan-1-one]", "IC50": "1 to 10 µM"}, {"smiles": "CC(C)(COC(F)(F)F)C(=O)N1OCC[C@H]1c1cncc(Cl)c1", "note": "[Compound 177, 1-[(3S)-3-(5-chloropyridin-3-yl)-1,2-oxazolidin-2-yl]-2,2-dimethyl-3-(trifluoromethoxy) propan-1-one]", "IC50": "< 1 µM"}, {"smiles": "CC(C)(CC#N)C(=O)N1OCC[C@H]1c1ccc(C(F)F)c(C#N)c1", "note": "[Compound 228, 5-[(3S)-2-(3-cyano-2,2-dimethylpropanoyl)-1,2-oxazolidin-3-yl]-2-(difluoromethyl)benzonitrile]", "IC50": "< 1 µM"}, {"smiles": "CC(CC#N)C(=O)N1OCC[C@H]1c1ccc(C#N)cc1", "note": "(single isomer, unassigned) [Compound 209]", "IC50": "< 1 µM"}, {"smiles": "CC(C)(C)C(=O)N1OCCC1c1ccc(F)cc1", "note": "(single isomer, unassigned) [Compound 74, 1-[3-(4-Fluorophenyl)-1,2-oxazolidin-2-yl]-2,2-dimethylpropan-1-one]", "IC50": "> 10 µM"}, {"smiles": "CC(C(=O)N1OCC[C@H]1c1ccc(F)cc1)C(F)(F)F", "note": "(single isomer, unassigned) [Compound 94]", "IC50": "< 1 µM"}, {"smiles": "CC(C)(CC#N)C(=O)N1OCC[C@H]1c1ccc(F)cc1", "note": "[Compound 171, 4-[(3S)-3-(4-fluorophenyl)-1,2-oxazolidin-2-yl]-3,3-dimethyl-4-oxobutanenitrile]", "IC50": "< 1 µM and 0.011 µM"}, {"smiles": "CC(C)(C)C(=O)N1OCC[C@H]1c1c(F)cccc1F", "note": "[Compound 68, 1-[(3S)-3-(2,6-Difluorophenyl)-1,2-oxazolidin-2-yl]-2,2-dimethylpropan-1-one]", "IC50": "< 1 µM"}, {"smiles": "CC(C)(C)C(=O)N1OCC[C@H]1c1cccc2ccnn12", "note": "[Compound 140, 2,2-dimethyl-1-[(3S)-3-{pyrazolo[1,5-a]pyridin-7-yl}-1,2-oxazolidin-2-yl]propan-1-one]", "IC50": "< 1 µM"}, {"smiles": "CC1(C(=O)N2OCC[C@H]2c2ccccc2)CC(F)(F)C1", "note": "[Compound 57, (3S)-2-(3,3-difluoro-1-methylcyclobutane-carbonyl)-3-phenyl-1,2-oxazolidine]", "IC50": "< 1 µM"}, {"smiles": "N#Cc1cncc([C@@H]2CCON2C(=O)C(C2CC2)(C2CC2)C2CC2)c1", "note": "[Compound 242, 5-[(3S)-2-(tricyclopropylacetyl)-1,2-oxazolidin-3-yl]pyridine-3-carbonitrile]", "IC50": "0.005 µM"}, {"smiles": "Cc1ncc([C@@H]2CCON2C(=O)C(C)(C)C)cn1", "note": "[Compound 125, 2,2-dimethyl-1-[(3S)-3-(2-methylpyrimidin-5-yl)-1,2-oxazolidin-2-yl]propan-1-one]", "IC50": "< 1 µM"}, {"smiles": "CC(C)(C)C(=O)N1OCC[C@@H]1c1cccc(F)c1F", "note": "[Compound 30, 1-[(3R)-3-(2,3-Difluorophenyl)-12-oxazolidin-2-yl]-2,2-dimethylpropan-1-one]", "IC50": "< 1 µM"}, {"smiles": "N#CC1(C(=O)N2OCC[C@H]2c2ccc(F)cc2)CC2(COC2)C1", "note": "[Compound 172, 6-[(3S)-3-(4-fluorophenyl)-1,2-oxazolidine-2-carbonyl]-2-oxaspiro[3.3]heptane-6-carbonitrile]", "IC50": "< 1 µM"}, {"smiles": "CC(C)(C)C(=O)N1OCC[C@H]1c1ccc(F)cc1F", "note": "[Compound 135, 1-[(3S)-3-(2,4-difluorophenyl)-1,2-oxazolidin-2-yl]-2,2-dimethylpropan-1-one]", "IC50": "< 1 µM"}, {"smiles": "CC(C(=O)N1OCC[C@H]1c1ccc(F)cc1)C(F)F", "note": "(single isomer, unassigned) [Compound 188]", "IC50": "< 1 µM"}, {"smiles": "Cc1ncc([C@@H]2CCON2C(=O)C(C)(C)C(F)F)cn1", "note": "[Compound 126, 3,3-difluoro-2,2-dimethyl-1-[(3S)-3-(2-methylpyrimidin-5-yl)-1,2-oxazolidin-2-yl]propan-1-one]", "IC50": "< 1 µM"}, {"smiles": "O=C(N1OCC[C@H]1c1ccc(F)cc1)C1(C(F)(F)F)CC1", "note": "[Compound 37, (3S)-3-(4-Fluorophenyl)-2-[1-(trifluoromethyl)cyclo-propanecarbonyl]-1,2-oxazolidine]", "IC50": "< 1 µM"}, {"smiles": "CC(C)(C)C(=O)N1OCC[C@@H]1c1ccc(F)cc1F", "note": "[Compound 134, 1-[(3R)-3-(2,4-difluorophenyl)-1,2-oxazolidin-2-yl]-2,2-dimethylpropan-1-one]", "IC50": "< 1 µM"}, {"smiles": "CC(C)(F)C(=O)N1OCC[C@H]1c1ccccc1", "note": "[Compound 56, 2-Fluoro-2-methyl-1-[(3S)-3-phenyl-1,2-oxazolidin-2-yl]propan-1-one]", "IC50": "< 1 µM"}, {"smiles": "CC(C)(C)C(=O)N1OCC[C@@H]1c1c(F)cccc1F", "note": "[Compound 67, 1-[(3R)-3-(2,6-Difluorophenyl)-1,2-oxazolidin-2-yl]-2,2-dimethylpropan-1-one]", "IC50": "1 to 10 µM"}, {"smiles": "CC(C)(C)C(=O)N1OCC[C@H]1c1ccc(F)c(F)c1", "note": "[Compound 50, 1-[(3S)-3-(3,4-Difluorophenyl)-1,2-oxazolidin-2-yl]-2,2-dimethylpropan-1-one]", "IC50": "< 1 µM"}, {"smiles": "CC1(C(=O)N2OCC[C@H]2c2ccc(F)cc2)CNC1", "note": "[Compound 43, (3S)-3-(4-Fluorophenyl)-2-(3-methylazetidine-3-carbonyl)-1,2-oxazolidine]", "IC50": "> 10 µM"}, {"smiles": "CC(C)(C)C(=O)N1OCC[C@H]1c1ccccc1C#N", "note": "[Compound 146, 2-[(3S)-2-(2,2-dimethylpropanoyl)-1,2-oxazolidin-3-yl]benzonitrile]", "IC50": "< 1 µM"}]}]}
